Experimental data reported in ChEMBL document CHEMBL1201862, “PubChem BioAssay data set” (2004).
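48-hour exposure; five concentrations; linearly interpolated endpoints. At the GI50, growth is halved.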 Activity calls are given as the source filed them. Rule as the data show it: active = GI50 up to about 1.1 µM and inactive = higher.

Assays:
Experiment in all cases: NCI anticancer screen, dose series, 48 h
SF-539 = tested on: SF-539
HCT-15 = tested on: HCT-15
OVCAR-5 = tested on: OVCAR-5
MCF7 = tested on: MCF7
M14 = tested on: M14
UO-31 = tested on: UO-31
A549 = tested on: A549
CAKI-1 = tested on: CAKI-1
SNB-75 = tested on: SNB-75
EKVX = tested on: EKVX
NCI/ADR-RES = tested on: NCI/ADR-RES
MDA-MB-231 = tested on: MDA-MB-231
SF-295 = tested on: SF-295
SNB-19 = tested on: SNB-19
SF-268 = tested on: SF-268
UACC-62 = tested on: UACC-62
A498 = tested on: A498
HCC 2998 = tested on: HCC 2998
SK-MEL-2 = tested on: SK-MEL-2
KM12 = tested on: KM12

| SMILES | GI50 (SF-539) | GI50 (HCT-15) [µM] | GI50 (OVCAR-5) | GI50 (MCF7) | GI50 (M14) | GI50 (UO-31) | GI50 (A549) | GI50 (CAKI-1) | GI50 (SNB-75) | GI50 (EKVX) | GI50 (NCI/ADR-RES) | GI50 (MDA-MB-231) | GI50 (SF-295) | GI50 (SNB-19) | GI50 (SF-268) | GI50 (UACC-62) | GI50 (A498) | GI50 (HCC 2998) | GI50 (SK-MEL-2) | GI50 (KM12) |
| --- | --- | --- | --- | --- | --- | --- | --- | --- | --- | --- | --- | --- | --- | --- | --- | --- | --- | --- | --- | --- |
| C1=N\CCNCC/N=C/c2ccccc2OCc2cccc(n2)COc2ccccc2/1 | 2.72 µM (inactive) | 4.69 | 37.5 µM (inactive) | 4.13 µM (inactive) | 8.02 µM (inactive) | 9.12 µM (inactive) | > 100 µM (inactive) | 42.8 µM (inactive) | 9.46 µM (inactive) | 35.5 µM (inactive) | 6.21 µM (inactive) | 22.2 µM (inactive) | 8.15 µM (inactive) | > 22.4 µM (inactive) | 12.9 µM (inactive) | 6.15 µM (inactive) | > 100 µM (inactive) | 19.5 µM (inactive) | > 44.5 µM (inactive) | 20.5 µM (inactive) |
| [Se]=P(c1ccccc1)(c1ccccc1)c1ccc(C(c2ccccc2)=P(c2ccccc2)(c2ccccc2)c2ccccc2)cc1 | 1.46 µM (inactive) | 4.55 | 3.05 µM (inactive) | 0.695 µM (active) | 1.54 µM (inactive) | 3.27 µM (inactive) | 1.44 µM (inactive) | 2.3 µM (inactive) | 0.431 µM (active) | 1.89 µM (inactive) | 7.67 µM (inactive) | 0.661 µM (active) | 2.27 µM (inactive) | 1.01 µM (active) | 0.514 µM (active) | 1.02 µM (active) | 2.76 µM (inactive) | 0.979 µM (active) | 0.957 µM (active) | 0.439 µM (active) |
| O=C1OS2(OCc3cccc4cccc2c34)c2ccccc21 (stereo not given) | > 100 µM (inactive) | > 100 | > 100 µM (inactive) | > 100 µM (inactive) | > 100 µM (inactive) | > 100 µM (inactive) | > 100 µM (inactive) | > 100 µM (inactive) | > 100 µM (inactive) | > 100 µM (inactive) | > 100 µM (inactive) | > 100 µM (inactive) | > 100 µM (inactive) | > 100 µM (inactive) | > 100 µM (inactive) | > 100 µM (inactive) | > 100 µM (inactive) | > 100 µM (inactive) | > 100 µM (inactive) | > 100 µM (inactive) |
| O=S1(=O)N=C(NCc2c[nH]c3ccccc23)N(c2ccccc2)c2ccncc21 | 66.4 µM (inactive) | > 100 | > 100 µM (inactive) | > 100 µM (inactive) | > 100 µM (inactive) | 5.25 µM (inactive) | > 100 µM (inactive) | > 100 µM (inactive) | 16.8 µM (inactive) | 64.9 µM (inactive) | > 100 µM (inactive) | > 100 µM (inactive) | > 100 µM (inactive) | 34.9 µM (inactive) | 27.5 µM (inactive) | > 100 µM (inactive) | > 100 µM (inactive) | > 100 µM (inactive) | > 100 µM (inactive) | > 100 µM (inactive) |
| C/C(=N\Nc1nc2ccccc2o1)c1ccncn1 | 0.258 µM (active) | 0.0476 | 4.36 µM (inactive) | 0.0556 µM (active) | 0.126 µM (active) | 0.0479 µM (active) | 0.24 µM (active) | 0.0471 µM (active) | 0.457 µM (active) | 0.0526 µM (active) | 0.19 µM (active) | 0.169 µM (active) | 0.363 µM (active) | 0.432 µM (active) | 0.132 µM (active) | 0.28 µM (active) | 0.45 µM (active) | 1.02 µM (active) | 0.277 µM (active) | 0.163 µM (active) |
| O=c1c(C(c2ccc3ccccc3c2)c2c(O)oc3ccccc3c2=O)c(O)oc2ccccc12 | 25.5 µM (inactive) | 20 | 28.1 µM (inactive) | 37.1 µM (inactive) | 25.9 µM (inactive) | 17 µM (inactive) | 33 µM (inactive) | 22.9 µM (inactive) | 18.8 µM (inactive) | 31.9 µM (inactive) | 17.9 µM (inactive) | 22.6 µM (inactive) | 50.4 µM (inactive) | 46.3 µM (inactive) | 21.4 µM (inactive) | 38.1 µM (inactive) | 36.3 µM (inactive) | 17.9 µM (inactive) | 34.5 µM (inactive) | 18.1 µM (inactive) |
| COc1ccc(C(=O)c2sc(Nc3ccc(Cl)cc3)nc2N)cc1 | 14 µM (inactive) | 3.27 | > 49.9 µM (inactive) | 4.45 µM (inactive) | > 63.8 µM (inactive) | 38.2 µM (inactive) | 6.15 µM (inactive) | 16.4 µM (inactive) | 2.79 µM (inactive) | 32.8 µM (inactive) | 5.37 µM (inactive) | 26.3 µM (inactive) | 11.1 µM (inactive) | 17.2 µM (inactive) | 8.15 µM (inactive) | 19.3 µM (inactive) | 17 µM (inactive) | 4.91 µM (inactive) | 17 µM (inactive) | 4.48 µM (inactive) |
